Experimental findings from ChEMBL document CHEMBL3751812, “Novel skeleton compound Allomyrinanoid A and two purine alkaloids from the adult of Allomyrina dichotoma L” (2016) are described below.

Common to all, as to assay type: functional
Common to all, as to conditions: read-out: DIZ

Assay [1] deals with Bacillus subtilis. The experiment in a line: Antibacterial activity against Bacillus subtilis assessed as growth inhibition at 10 mg/ml by drug sensitive assay.
In assay [2] the test system is Escherichia coli. The experiment in a line: Antibacterial activity against Escherichia coli assessed as growth inhibition at 10 mg/ml by drug sensitive assay.
Assay [3] concerns Bacillus subtilis. The experiment in a line: Antibacterial activity against Bacillus subtilis assessed as growth inhibition at 1 mg/ml by drug sensitive assay.
Assay [4] relates to Staphylococcus aureus. The experiment in a line: Antibacterial activity against Staphylococcus aureus assessed as growth inhibition at 10 mg/ml by drug sensitive assay.
Assay [5] relates to Staphylococcus aureus. The experiment in a line: Antibacterial activity against Staphylococcus aureus assessed as growth inhibition at 1 mg/ml by drug sensitive assay.

On to `CNC(=O)[C@H]1CCC[C@@H](C(=O)O)[C@@H](C)[C@H](C)[C@H](C)[C@@H]1C`, for which, in assay [1], the zone of inhibition at 10000 µg/mL was found to be 4.5 mm.
As to `Nc1ncnc2c1ncn2/C=N\O` (stereo in doubt; 2), the zone of inhibition at 10000 µg/mL in assay [2] amounted to 5.5 mm.
With `CC1(C)S[C@@H]2[C@H](NC(=O)Cc3ccccc3)C(=O)N2[C@H]1C(=O)O` [PENICILLIN G], the zone of inhibition at 1000 µg/mL in assay [3] was 10 mm; in assay [5], 9 mm. The values for the zone of inhibition at 10000 µg/mL in assay [4] and in assay [1] were 17 mm and 18 mm, respectively.
